Measured values: publication PMC6556873, “Rapid Covalent-Probe Discovery by Electrophile-Fragment Screening” (Journal of the American Chemical Society, 2019)
Where two headings read alike, the source gives them in different places.

Experiments:
in vitro [1] = experiment: in vitro; set-up: species or system HB2, CCD841; details: human, hek293 cells
in vitro [2] = experiment: in vitro; set-up: species or system CCD841, HEK293; details: human, hb2 cells, read-out: HB-2 Cells Viability (%)
BSA = target: T1, BSA (Bos taurus, UniProt P02769); set-up: Intact protein LC/MS covalent labelling, fragments in pools of five, 200 uM each, 4 °C; details: 24 h, 4 °C, pool of five; 200 µM; covalent
T1 construct: gene ALB
Procedure: (§1) Incubations were performed at 200 μM for each compound and 2 μM of protein (10 μM for BSA) for 24 h at 4 °C with moderate shaking. Incubation buffers varied among proteins (PBS pH 7.4 for QSOX1 and BSA; 10 mM HEPES pH 7.5, 0.3 M NaCl, 0.5 mM TCEP for PCAF, UPS8, and NUDT7; […]; 10 mM Na2HPO4 pH 7.5 100 mM NaCl 5 mM β-mercaptoethanol for NV3CP; 20 mM Na phosphate pH 7.5 for NNMT; […]. The reaction was stopped by quenching with formic acid, 0.4% final concentration. Each protein was incubated with the electrophilic library in pools of five compounds per well. The pool’s composition maximized the difference in mass between fragments in the same well. Incubations were performed with each fragment at 200 μM, for 24 h at 4 °C, to allow the screening of proteins that are not stable for long time periods at higher temperatures. Following incubation, we used intact protein [compound left out] chromatography/mass spectrometry (LC/MS) to identify the fragments and quantify their labeling (Figure 3A). […] There was good agreement between the percent of labeling of NUDT7 by 100 random individual compounds and that obtained in pools of five (R^2=0.78; Figure S6 and Data set 2 in the Supporting Information).

OTUB2 (OTUB2A) = target: T2, OTUB2 (OTUB2A) (Homo sapiens, UniProt Q96DC9); set-up: Intact protein LC/MS covalent labelling, fragments in pools of five, 200 uM each, 4 °C; details: 24 h, 4 °C, pool of five; 200 µM; covalent
T2 construct: full length residues 1-234, E. coli BL21(DE3)-R3, His tag removed by TEV, construct 27312 Da
T2 sequence (Q96DC9 1-234): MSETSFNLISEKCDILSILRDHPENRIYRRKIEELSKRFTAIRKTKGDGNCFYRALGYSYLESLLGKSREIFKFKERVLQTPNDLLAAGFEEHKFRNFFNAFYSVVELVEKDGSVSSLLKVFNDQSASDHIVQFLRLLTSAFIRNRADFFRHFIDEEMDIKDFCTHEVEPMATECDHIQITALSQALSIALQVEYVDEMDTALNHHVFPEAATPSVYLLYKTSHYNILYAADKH
Procedure: as §1

NUDT7 = target: T3, NUDT7 (Homo sapiens, UniProt P0C024); set-up: Intact protein LC/MS covalent labelling, fragments in pools of five, 200 uM each, 4 °C; details: 24 h, 4 °C, pool of five; 200 µM; covalent
T3 construct: residues 14-235, E. coli, pNIC28-Bsa4, N-terminal His6 tag removed by TEV, construct 26672 Da
Procedure: as §1

PCAF = target: T4, PCAF (Homo sapiens, UniProt Q92831); set-up: Intact protein LC/MS covalent labelling, fragments in pools of five, 200 uM each, 4 °C; details: 24 h, 4 °C, pool of five; 200 µM; covalent
T4 construct: gene KAT2B
Procedure: as §1

in vitro [3] = experiment: in vitro; set-up: species or system HB2, HEK293; details: human, ccd841 cells

T3 sequence (P0C024 14-235): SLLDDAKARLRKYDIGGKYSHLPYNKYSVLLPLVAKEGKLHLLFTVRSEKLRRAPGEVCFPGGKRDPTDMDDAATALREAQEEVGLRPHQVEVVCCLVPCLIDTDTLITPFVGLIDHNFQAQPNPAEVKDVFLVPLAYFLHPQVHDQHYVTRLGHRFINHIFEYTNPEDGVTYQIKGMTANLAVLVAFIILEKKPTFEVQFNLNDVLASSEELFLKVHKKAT
T4 sequence (Q92831 whole entry, the tested form may be a part): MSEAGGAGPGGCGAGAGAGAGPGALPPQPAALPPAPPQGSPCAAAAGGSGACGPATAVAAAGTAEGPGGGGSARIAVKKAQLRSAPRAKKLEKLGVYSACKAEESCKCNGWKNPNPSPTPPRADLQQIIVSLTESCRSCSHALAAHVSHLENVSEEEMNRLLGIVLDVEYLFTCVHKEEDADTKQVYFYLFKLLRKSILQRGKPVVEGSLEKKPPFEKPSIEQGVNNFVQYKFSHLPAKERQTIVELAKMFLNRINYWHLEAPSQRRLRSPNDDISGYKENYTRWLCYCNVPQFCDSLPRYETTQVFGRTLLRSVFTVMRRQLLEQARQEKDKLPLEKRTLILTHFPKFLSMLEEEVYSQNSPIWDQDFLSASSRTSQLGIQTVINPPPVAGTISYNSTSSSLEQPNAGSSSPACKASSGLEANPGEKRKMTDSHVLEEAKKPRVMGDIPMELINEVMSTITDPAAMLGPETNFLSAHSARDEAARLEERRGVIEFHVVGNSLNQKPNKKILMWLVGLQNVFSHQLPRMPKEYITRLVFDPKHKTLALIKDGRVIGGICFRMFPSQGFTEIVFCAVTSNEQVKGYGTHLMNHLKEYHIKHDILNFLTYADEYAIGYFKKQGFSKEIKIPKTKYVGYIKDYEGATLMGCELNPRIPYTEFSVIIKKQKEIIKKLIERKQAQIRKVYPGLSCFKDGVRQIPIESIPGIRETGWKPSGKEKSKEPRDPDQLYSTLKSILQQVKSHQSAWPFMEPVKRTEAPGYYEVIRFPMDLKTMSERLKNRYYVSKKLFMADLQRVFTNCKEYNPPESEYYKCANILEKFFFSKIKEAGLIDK
T1 sequence (P02769 whole entry, the tested form may be a part): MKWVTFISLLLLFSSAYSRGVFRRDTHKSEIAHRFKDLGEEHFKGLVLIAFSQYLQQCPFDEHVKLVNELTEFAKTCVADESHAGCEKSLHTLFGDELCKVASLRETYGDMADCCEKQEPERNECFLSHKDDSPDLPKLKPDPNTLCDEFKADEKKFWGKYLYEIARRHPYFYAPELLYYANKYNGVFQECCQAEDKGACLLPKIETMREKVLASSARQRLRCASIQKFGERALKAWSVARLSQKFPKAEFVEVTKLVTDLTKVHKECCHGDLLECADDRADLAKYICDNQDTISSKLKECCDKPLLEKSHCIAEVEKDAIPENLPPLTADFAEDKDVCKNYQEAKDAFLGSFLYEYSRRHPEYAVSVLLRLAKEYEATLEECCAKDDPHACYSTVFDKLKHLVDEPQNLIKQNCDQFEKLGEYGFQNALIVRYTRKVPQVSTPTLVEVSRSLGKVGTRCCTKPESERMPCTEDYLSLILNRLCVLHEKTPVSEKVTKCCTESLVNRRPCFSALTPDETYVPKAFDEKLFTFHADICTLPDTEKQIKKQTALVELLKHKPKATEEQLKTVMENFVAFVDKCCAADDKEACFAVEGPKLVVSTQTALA

SMILES | BSA (BSA) | OTUB2 (OTUB2 (OTUB2A)) | NUDT7 (NUDT7) | PCAF (PCAF) | viability at 48 h, 10 µM (in vitro [1]) [%] | viability at 48 h, 10 µM (in vitro [2]) [%] | viability at 48 h, 10 µM (in vitro [3]) [%]
CS(=O)(=O)c1ccc(NC(=O)CCl)cc1 [PCM-0102335] | 0 | 0.3 | 0.06 | 0 | 2.7 | 37.1 | 46
O=C(CCl)Nc1cccc(-c2nnc3n2CCCCC3)c1 [PCM-0102181] | 0 | 0 | 0 | 0 | 39.2 | 51.2 | 73.2
Cn1cccc1C(=O)NC(=O)CCl [PCM-0102863] | 0.2 | 0 | 0 | 0 | 92.2 | 106 | 112
O=C(CCl)Nc1cc(Cl)ccc1C(=O)O [PCM-0102412] | 0 | 0.07 | 0.16 | 0 | 89.4 | 99.3 | 100
CC(c1nc2ccccc2s1)N(C)C(=O)CCl (centres unmarked) [PCM-0102793] | 0 | 0.19 | 0 | 0 | 1 | 4.3 | 26.1
CC(NC(=O)CCl)c1ccc(Cl)cc1 (centres unmarked) [PCM-0102334] | 0 | 0.25 | 0 | 0 | 68.5 | 78.4 | 67.8
O=C(CCl)N1CCN(S(=O)(=O)c2ccc3ccccc3c2)CC1 [PCM-0102836] | 0 | 0 | 0 | 0 | 46.3 | 11.7 | 67.7
O=C(CCl)N1CCN(S(=O)(=O)c2cccc(F)c2)CC1 [PCM-0102327] | 0 | 0 | 0.13 | 0 | 8.1 | 5.2 | 45.3
O=C(CCl)Nc1cc(C(F)(F)F)ccc1N1CCOCC1 [PCM-0102741] | 0 | 0.1 | 0 | 0 | 118 | 102 | 111
O=C(CCl)Nc1ccccc1N1CCCCC1 [PCM-0102860] | 0 | 0 | 0 | 0 | 97.5 | 111 | 109
CNC(=O)C1CCCN1C(=O)CCl (centres unmarked) [PCM-0102518] | 0 | 0 | 0 | 0 | 67.8 | 101 | 93.3
O=C(CCl)N(C1CC1)C1CCS(=O)(=O)C1 (centres unmarked) [PCM-0102832] | 0 | 0.43 | 0 | 0 | 67.9 | 88.7 | 85.1
C=CC(=O)N1CCCC(c2nnc3ccc(C(F)(F)F)cn23)C1 (centres unmarked) [PCM-0102606] | 0 | 0 | 0 | 0 | 126 | 107 | 111
C=CC(=O)Nc1sc2c(c1C#N)CCCC2 [PCM-0102455] | 0 | 0 | 1 | 0 | 81.4 | 64.1 | 72.5
CN(Cc1cc(C#N)ccc1F)C(=O)CCl [PCM-0102897] | 0 | 0 | 0.07 | 0 | 9.6 | 23.8 | 69.2
C=CC(=O)N1CCCC2(CCS(=O)(=O)C2)C1 (centres unmarked) [PCM-0102600] | 0 | 0 | 0.05 | 0 | 98.9 | 107 | 121
Cc1cc(N2CCN(C(=O)CCl)CC2)nc(C(C)C)n1 [PCM-0102638] | 0.11 | 0 | 0 | 0 | 89.8 | 97.7 | 107
C=CC(=O)NC1CCC2(CC1)OCCO2 [PCM-0102564] | 0 | 0 | 0 | 0 | 75.1 | 109 | 132
NC(=O)C1CCN(C(=O)CCl)CC1 [PCM-0102584] | 0 | 0 | 0 | 0 | 89.8 | 105 | 97.9

The next lines start with results.

BSA (BSA) | OTUB2 (OTUB2 (OTUB2A)) | NUDT7 (NUDT7) | PCAF (PCAF) | SMILES | viability at 48 h, 10 µM (in vitro [1]) [%] | viability at 48 h, 10 µM (in vitro [2]) [%] | viability at 48 h, 10 µM (in vitro [3]) [%]
0 | 0.18 | 0 | 0 | O=C(CCl)NNC(=O)c1ccc(Cl)cc1 [PCM-0102953] | 82.8 | 83 | 82.1
0 | 0 | 0 | 0 | CN(C(=O)CCl)C1(C#N)CCCCC1 [PCM-0102916] | 7.5 | 38 | 47.6
0 | 0.08 | 0 | 0 | C=CC(=O)NCc1cc2sccc2s1 [PCM-0102986] | 78.6 | 98.7 | 111
0 | 0.09 | 0.12 | 0 | Cc1nc(-c2ccc(C)c(NC(=O)CCl)c2)n[nH]1 [PCM-0103052] | 39.1 | 57 | 43.4
0 | 0.1 | 0 | 0 | NS(=O)(=O)c1ccc(Cl)c(NC(=O)CCl)c1 [PCM-0103012] | 11.9 | 54.7 | 67.1
0 | 0 | 0.65 | 0 | O=C(CCl)N1CCC(c2nc3ccccc3s2)CC1 [PCM-0103068] | 15.4 | 17.4 | 46
0 | 0 | 0.29 | 0 | O=C(CCl)NC1(c2ccccc2)CCC1 [PCM-0102935] | 53.8 | 81.5 | 89.7
0 | 0 | 0 | 0 | C=CC(=O)NC(O)C(Cl)(Cl)Cl (centres unmarked) [PCM-0102963] | 94.7 | 102 | 89.7
0 | 0 | 0 | 0 | C=CC(=O)N1Cc2ccccc2OC(C)(C)C1 [PCM-0102927] | 93.4 | 104 | 111
0 | 0.06 | 0 | 0 | C=CC(=O)N1CCC(C#N)(c2ccccn2)CC1 [PCM-0102960] | 104 | 102 | 110
